Reference: article PMC9889419 (Pharmacological Reports, 2022)
“Also recorded” adds a separate entry of the source. Where a name gives a salt, the structure may show the parent alone. Read-outs that look alike come from different tables or passages of the source.

Legend:
rats [1] = type: in vivo; conditions: ip
mice [2] = assay: Formalin test (ETSP, area under the curve); type: in vivo; conditions: ip
α2 (non-selective) = assay: Radioligand binding; parameters: species or system rat
Description: (§1) Radioligand binding. Radioligand binding assays were performed at Eurofins CEREP (France). The results are expressed as a percent of control specific binding (measured specific binding*100/control specific binding) and as a percent inhibition of control specific binding (100-(measured specific binding*100)/control specific binding) obtained in the presence of the test compounds. The IC50 values (concentration causing a half-maximal inhibition of control specific binding) and Hill coefficients (nH) were determined by non-linear regression analysis of the competition curves generated with mean replicate values using Hill equation curve fitting (Y = D + [A-D]/[1 + (C/C50)^nH], where Y = specific binding, A = left asymptote of the curve, D = right asymptote of the curve, C = compound concentration, C50 = IC50, and nH = slope factor). This analysis was performed using software developed at Cerep (Hill software) and validated by comparison with data generated by the commercial software SigmaPlot® 4.0 for Windows® (© 1997 by SPSS Inc.). The inhibition constants (Ki) were calculated using the Cheng Prusoff equation (Ki = IC50/[1 + L/KD], where L = concentration of radioligand in the assay, and KD = affinity of the radioligand for the receptor). A scatchard plot is used to determine the Kd.

Sigma (non-selective) = assay: Radioligand binding; parameters: species or system rat
Description: as §1

[3] = tested on: Ca2+ channel (L, verapamil site) (phenylalkylamine); assay: Radioligand binding; parameters: species or system rat
Description: as §1

Na+ channel (site 2) = assay: Radioligand binding; parameters: species or system rat
rats [4] = assay: Maximal electroshock seizure (MES) test; type: in vivo
mice [5] = assay: Subcutaneous pentylenetetrazole seizure test (ScPTZ, SCMET); type: in vivo; conditions: ip, […]
Description: (§2) The assays were carried out within the Epilepsy Therapy Screening Program (ETSP, previously known as the Anticonvulsant Screening Program, ASP), Epilepsy Branch, National Institute of Neurological and Communicative Disorders and Stroke, National Institutes of Health in Rockville, MD, USA [23].

mice [6] = assay: iv pentylenetetrazole (PTZ) seizure threshold test; conditions: compound ip
Description: They were also evaluated in the iv pentylenetetrazole (PTZ) test.
Data are expressed as the mean PTZ dose ± SEM for n = 10 that induced clonus or twitch in mice exposed to a particular dose of the test compound

rats [7] = assay: SCMET (subcutaneous Metrazol) test; type: in vivo; conditions: for SCMET ED50: rats
mice [8] = assay: 6 Hz test; type: in vivo; conditions: mice; for ED50: Mus musculus
Description: The 6 Hz model test was carried out according to the protocol originally described by Brown et al. [54] and more recently by Barton et al. [55] and Kamiński et al. [47] and is a model of pharmacoresistant epilepsy [56].

[9] = tested on: organotypic hippocampal slice cultures; assay: Neuroprotection primary screen, excitotoxin kainic acid; type: cell-based; conditions: kainic acid 20 µM, 10 and 100 µM compound
Description: Compound 2 : ADD t{umber, b890s0 Batch: lB- Date Compteted. Ect\,t""201 0 […]
Excilotoxin: llGinic ncia Insult Duration: l+ Hours Solvent: […]
Ai lxn zopr.,r aZ lxa zopr,r Ae lre zoprta
Bz lr<n zopn er ]ra zopr',t l:+aot a r ooprt/|*aa9o8o l oopM lgaeota t oot,tr,t*gB9o8o t oopM […]
The "Primary screen Experiment" is a qualitative assessment of the ability of a compound to prevent excitotoxic cell dearh. organotypic hippocampal slice clltures are treated with N-methyl-D-aipartate lNuoa; o; kainic acid (KA) to induce neuronal cell death. Propidium iodide (Pl), a membrane-impermeant compound, is included in all welts of the culture plate.
Dying cells have compromised cell membranes, thus Pl may diffuse into the cell, intercalate with DNA and ftuoresce. Thus, the intensity of the Pl fluorescence is proportional to the amount of cell death in the individual slices. Hippocampal slice cultures are treated with the excitotoxin alone, or where indicated above, with the excitotoxin and either one eltu/o investigational compounds at the concentrations indicated. lf neuroprotection occurs as a consequence of the added […]
been treated with the excitotoxin alone.
(1 picture or pasted object on this page, not shown here)

5-HT1A = molecular target: T1, 5-HT1A (Homo sapiens, UniProt P08908); assay: Radioligand binding
T1 sequence (P08908 1-422): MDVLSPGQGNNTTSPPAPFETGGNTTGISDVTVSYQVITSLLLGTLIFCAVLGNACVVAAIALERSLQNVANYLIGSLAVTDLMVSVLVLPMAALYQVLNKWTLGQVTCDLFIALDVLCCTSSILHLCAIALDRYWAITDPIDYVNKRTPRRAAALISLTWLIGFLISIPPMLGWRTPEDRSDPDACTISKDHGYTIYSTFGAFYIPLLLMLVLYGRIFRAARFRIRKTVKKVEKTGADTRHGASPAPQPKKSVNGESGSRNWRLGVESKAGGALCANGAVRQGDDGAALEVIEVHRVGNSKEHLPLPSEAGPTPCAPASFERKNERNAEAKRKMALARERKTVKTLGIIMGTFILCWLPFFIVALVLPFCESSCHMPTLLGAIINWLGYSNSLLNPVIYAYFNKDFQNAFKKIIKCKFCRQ
Description: as §1

5-HT7 = 5-HT7 (Homo sapiens, UniProt P34969); assay: Radioligand binding
5-HT7, sequence (P34969 whole entry): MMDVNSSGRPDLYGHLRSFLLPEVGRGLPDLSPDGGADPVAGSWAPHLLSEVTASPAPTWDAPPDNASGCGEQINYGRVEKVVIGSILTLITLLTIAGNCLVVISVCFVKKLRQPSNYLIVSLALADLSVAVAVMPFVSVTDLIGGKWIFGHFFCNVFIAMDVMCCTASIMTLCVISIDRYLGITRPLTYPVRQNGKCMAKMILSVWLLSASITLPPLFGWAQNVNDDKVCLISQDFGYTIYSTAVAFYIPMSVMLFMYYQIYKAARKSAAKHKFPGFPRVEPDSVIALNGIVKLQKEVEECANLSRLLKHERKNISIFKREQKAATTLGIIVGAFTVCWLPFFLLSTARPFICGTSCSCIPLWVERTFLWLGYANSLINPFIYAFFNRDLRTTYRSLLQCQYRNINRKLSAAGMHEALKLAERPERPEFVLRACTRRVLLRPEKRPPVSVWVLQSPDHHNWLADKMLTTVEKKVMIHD
Description: as §1

mice [10] = tested on: mice
Description: as §2
The obtained compounds were screened for antiseizure activity and neurotoxicity in vivo within the Epilepsy Therapy Screening Program (ETSP, previously known as the Anticonvulsant Screening Program, ASP), Epilepsy Branch, National Institute of Neurological and Communicative Disorders and Stroke, National Institutes of Health in Rockville, MD, USA [23].

mice [11] = assay: Corneal kindling; type: in vivo; conditions: ip
[12] = 0.01 μM, read-out: % of control specific binding
[13] = 0.1 μM, read-out: % of control specific binding
[14] = 1 μM, read-out: % of control specific binding
[15] = 10 μM, read-out: % of control specific binding

CCC(CO)NCCOc1c(C)cccc1Cl (stereo not shown) [Compound 4, R,S-2-((2-(2-chloro-6-methylphenoxy)ethyl)amino)butan-1-ol]
Hippocampal kindling avg. seizure score by Racine (0–5) (rats [1]; at 40 mg/kg, 0.25–2.25 h): 5
Area under the curve (I phase) (mice [2]; 21 mg/kg): 124.8 ± 32.7
Area under the curve (II phase) (mice [2]; 21 mg/kg): 569.2 ± 405.0
Area under the curve, % of control (I phase) (mice [2]; 21 mg/kg): 64.0%
Area under the curve, % of control (II phase) (mice [2]; 21 mg/kg): 72.7%
Area under the curve (I phase) (mice [2]; 21 mg/kg, listed as 348014): 124.8
Area under the curve (II phase) (mice [2]; 21 mg/kg, listed as 348014): 569.2
% of control specific binding (α2 (non-selective); 100 μM): 27.7%
% of control specific binding (Sigma (non-selective); 100 μM): -2.7%
% of control specific binding ([3]; 100 μM): 38.5%
% of control specific binding (Na+ channel (site 2); 100 μM): 11.6%
MES TPE (rats [4]; ip): 0.25 h
MES ED50 (rats [4]; ip, […]): 7.3 (5.39–9.89) mg/kg
MES ED50 (rats [4]; po): > 60 mg/kg
MES PI (rats [4]; po): > 3.55
MES ED50 (rats [4]; po, […]): 67.69 (43.01–93.82) mg/kg
SCMET ED50 (mice [5]; mice): > 64 mg/kg
influence on seizure threshold (mice [6]): lowered the seizure threshold; also recorded: showed activity in lowering the seizure threshold
SCMET ED50 (rats [7]; ip, […]): > 50 mg/kg
SCMET ED50 (rats [7]; po): > 240 mg/kg
6 Hz ED50 (mice [8]; 32 mA, ip): 32.4 (28.4–36.0) mg/kg
6 Hz TPE (mice [8]; 32 mA, ip): 0.25 h
6 Hz ED50 (mice [8]; 44 mA, ip): 29.75 (28.3–31.5) mg/kg
6 Hz TPE (mice [8]; 44 mA, ip): 0.25 h
Test Result (neuroprotection) [9]: No Neuroprotection
% of control specific binding (5-HT1A; 100 μM): 2.1%
% of control specific binding (5-HT7; 100 μM): 26.4%
MES TPE (mice [10]; female mice, ip): 0.25 h
MES ED50 (mice [10]; female mice, ip, […]): 11.64 (10.55–12.47) mg/kg
MES ED50 (mice [10]; mice, ip, […]): 21.44 (18.63–25.32) mg/kg
MES PI (mice [10]; mice, po): 6.12
MES TPE (mice [10]; mice, po): 0.5 h
MES ED50 (mice [10]; mice, po, 0.5 h): 58.13 (45.58–68.93) mg/kg
Corneal kindling TPE (mice [11]): 0.25 h
Corneal kindling ED50 (mice [11]; […]): 19.51 (11.86–28.41) mg/kg

CCC(CO)NCCOc1c(C)cccc1Cl (stereo not shown) [KM-408, R,S-2-((2-(2-chloro-6-methylphenoxy)ethyl)amino)butan-1-ol hydrochloride]
Hippocampal kindling: death at (rats [1]; […]): 200 mg/kg
Area under the curve (I phase) (mice [2]; 13.25 mg/kg): 113.7 ± 65.6
Area under the curve (II phase) (mice [2]; 13.25 mg/kg): 489.7 ± 211.3
IC50 (α2 (non-selective)): 24 µM
Ki (α2 (non-selective)): 10 µM
% of control specific binding (α2 (non-selective); 0.01 μM): 101.3%
% of control specific binding (α2 (non-selective); 0.1 μM): 111.6%
% of control specific binding (α2 (non-selective); 1 μM): 101.2%
% of control specific binding (α2 (non-selective); 10 μM): 73.4%
% of control specific binding (α2 (non-selective); 100 μM): 23.5%
IC50 (Sigma (non-selective)): 89 nM
Ki (Sigma (non-selective)): 72 nM
% of control specific binding (Sigma (non-selective); 0.001 μM): 104.0%
% of control specific binding (Sigma (non-selective); 0.01 μM): 97.1%
% of control specific binding (Sigma (non-selective); 0.1 μM): 50.0%
% of control specific binding (Sigma (non-selective); 1 μM): 13.1%
% of control specific binding (Sigma (non-selective); 10 μM): 1.4%
IC50 [3]: 43 µM
Ki [3]: 22 µM
% of control specific binding ([3]; 0.1 μM): 101.9%
% of control specific binding ([3]; 1 μM): 104.4%
% of control specific binding ([3]; 3 μM): 93.6%
% of control specific binding ([3]; 10 μM): 80.9%
% of control specific binding ([3]; 100 μM): 34.8%
IC50 (Na+ channel (site 2)): 15 µM
Ki (Na+ channel (site 2)): 14 µM
% of control specific binding (Na+ channel (site 2); 0.3 μM): 101.1%
% of control specific binding (Na+ channel (site 2); 3 μM): 92.0%
% of control specific binding (Na+ channel (site 2); 30 μM): 40.3%
ED50 (rats [4]; Rattus norvegicus, ip, 0.25 h): 5.69 mg/kg
MES PI (rats [4]; ip): 9.55
MES TPE (rats [4]; ip): 0.25 h
ED50 (mice [5]; Mus musculus, read-out: SCMET ED50): > 100 mg/kg
influence on seizure threshold (mice [6]): the effect was not observed
influence on seizure threshold (mice [6]; listed as KM408): effect was not shown
ED50 (rats [7]; Rattus norvegicus, ip, […], read-out: SCMET ED50): > 54 mg/kg
6 Hz TPE (mice [8]; 32 mA, ip): 0.25 h
6 Hz TPE (mice [8]; 44 mA, ip): 0.25 h
6 Hz TPE (mice [8]; 44 mA, po): 0.25 h
ED50 (mice [8]; ip, 32 mA): 29.4 mg/kg
ED50 (mice [8]; ip, 44 mA): 35.1 mg/kg
ED50 (mice [8]; po, 44 mA): 281 mg/kg
Test Result (neuroprotection) ([9]; listed as 367061): No neurop rotection observed
IC50 (5-HT1A): 1300 nM
Ki (5-HT1A): 800 nM
remaining activity at 0.001 µM (5-HT1A; 0.001 μM, read-out: % of control specific binding): 100%
remaining activity at 0.01 µM (5-HT1A; [12]): 95.9%
remaining activity at 0.1 µM (5-HT1A; [13]): 88.6%
remaining activity at 1 µM (5-HT1A; [14]): 55.6%
remaining activity at 10 µM (5-HT1A; [15]): 12.5%
IC50 (5-HT7): 18 µM
Ki (5-HT7): 6.5 µM
remaining activity at 0.01 µM (5-HT7; [12]): 107%
remaining activity at 0.1 µM (5-HT7; [13]): 106%
remaining activity at 1 µM (5-HT7; [14]): 105%
remaining activity at 10 µM (5-HT7; [15]): 66.1%
remaining activity at 100 µM (5-HT7; 100 μM, read-out: % of control specific binding): 20.2%
MES TPE (mice [10]; mice, ip): 0.25 h
Corneal kindling avg. seizure score by Racine (0–5) (mice [11]; at 30 mg/kg, […]): 2.5
